Assay results as given in PMC2000878, “Module structure of interphotoreceptor retinoid-binding protein (IRBP) may provide bases for its complex role in the visual cycle – structure/function study of Xenopus IRBP” (BMC Biochemistry, 2007).
Read-outs that look alike come from different tables or passages of the source.

What was measured:
Xenopus IRBP Module 1 = Xenopus IRBP Module 1 (Xenopus laevis, UniProt Q7SZI7); assay: Fluorometric titration (enhancement, quenching); assay type: binding; set-up: cDNAs corresponding to the full-length IRBP, module 1, and module 2 were expressed in pThioHis; modules 3 and 4 were expressed in pTrxFus; made in house; host or cells: E. coli Top10 (pThioHis)
Sequence of Xenopus IRBP Module 1 (Q7SZI7 23-315): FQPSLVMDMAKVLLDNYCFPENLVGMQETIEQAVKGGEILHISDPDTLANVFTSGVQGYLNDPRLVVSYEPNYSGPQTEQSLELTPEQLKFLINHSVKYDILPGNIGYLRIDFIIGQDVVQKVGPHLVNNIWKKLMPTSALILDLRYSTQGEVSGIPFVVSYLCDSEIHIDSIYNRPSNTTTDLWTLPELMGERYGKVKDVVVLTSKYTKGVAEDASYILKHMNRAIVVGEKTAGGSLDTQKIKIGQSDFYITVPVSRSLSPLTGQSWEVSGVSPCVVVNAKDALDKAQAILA
Text: Enhancement of retinol fluorescence and quenching of the intrinsic protein fluorescence were used to monitor binding of all-trans retinol to the recombinant IRBPs. We previously derived an equation that is generally useful for describing such quantum yield changes that are consequent upon ligand binding. This equation has been previously applied to the analysis of binding by monitoring the enhancement of retinol fluorescence. In this case, where excitation is at 330 nm and emission is monitored at 480, the fluorescence enhancement (Fenh) depends on the total retinol concentration (Rt), the dissociation constant (Kd ^all-trans), the number of retinol-binding sites per protein molecule (N) and the total protein concentration (Pt).
Assuming that there is a single type of noninteracting site on the protein, (Fenh) is expected to be linearly related to the concentration of bound retinol molecules. Fenh is given by the relation
Fenh=C1+C2[Rtall−trans−(Rtall−trans+NPt+Kdall−trans)^2−4NPtRtall−trans] MathType@MTEF@5@5@+=feaafiart1ev1aaatCvAUfKttLearuWrP9MDH5MBPbIqV92AaeXatLxBI9gBaebbnrfifHhDYfgasaacH8akY=wiFfYdH8Gipec8Eeeu0xXdbba9frFj0=OqFfea0dXdd9vqai=hGuQ8kuc9pgc9s8qqaq=dirpe0xb9q8qiLsFr0=vr0=vr0dc8meaabaqaciaacaGaaeqabaqabeGadaaakeaacqWGgbGrdaWgaaWcbaGaemyzauMaemOBa4MaemiAaGgabeaakiabg2da9iabdoeadnaaBaaaleaacqaIXaqmaeqaaOGaey4kaSIaem4qam0aaSbaaSqaaiabikdaYaqabaGcdaWadaqaaiabdkfasnaaDaaaleaacqWG0baDaeaacqWGHbqycqWGSbaBcqWGSbaBcqGHsislcqWG0baDcqWGYbGCcqWGHbqycqWGUbGBcqWGZbWCaaGccqGHsisldaGcaaqaamaabmaabaGaemOuai1aa0baaSqaaiabdsha0bqaaiabdggaHjabdYgaSjabdYgaSjabgkHiTiabdsha0jabdkhaYjabdggaHjabd6gaUjabdohaZbaakiabgUcaRiabd6eaojabdcfaqnaaBaaaleaacqWG0baDaeqaaOGaey4kaSIaem4saS0aa0baaSqaaiabdsgaKbqaaiabdggaHjabdYgaSjabdYgaSjabgkHiTiabdsha0jabdkhaYjabdggaHjabd6gaUjabdohaZbaaaOGaayjkaiaawMcaamaaCaaaleqabaGaeGOmaidaaOGaeyOeI0IaeGinaqJaemOta4Kaemiuaa1aaSbaaSqaaiabdsha0bqabaGccqWGsbGudaqhaaWcbaGaemiDaqhabaGaemyyaeMaemiBaWMaemiBaWMaeyOeI0IaemiDaqNaemOCaiNaemyyaeMaemOBa4Maem4CamhaaaqabaaakiaawUfacaGLDbaaaaa@8490@
The equation was fit to the data by nonlinear least-squares analysis. To follow the quenching of the protein's intrinsic fluorescence the excitation and emission wavelengths were set to 280 nm and 340 nm, respectively, while the protein was titrated with all-trans retinol. For the quenching studies the inner filter effect was accounted for by graphical correction as previously described. Fluorescence measurements were made using an SLM 8000TM C photon counting spectrofluorometer corrected for wavelength dependence of source energy and detector response.

Xenopus IRBP Module 2 = biological target: T1, Xenopus IRBP Module 2 (Xenopus laevis, UniProt Q7SZI7); set-up: method as in Loew et al. Exp Eye Res. 2001, 73:257–264; details: ref Loew et al. Exp Eye Res. 2001, 73:257–264, cited from earlier work
T1 construct: cDNAs corresponding to the full-length IRBP, module 1, and module 2 were expressed in pThioHis; modules 3 and 4 were expressed in pTrxFus; made in house; host or cells: E. coli Top10 (pThioHis)
T1 sequence (Q7SZI7 319-617 limits assumed): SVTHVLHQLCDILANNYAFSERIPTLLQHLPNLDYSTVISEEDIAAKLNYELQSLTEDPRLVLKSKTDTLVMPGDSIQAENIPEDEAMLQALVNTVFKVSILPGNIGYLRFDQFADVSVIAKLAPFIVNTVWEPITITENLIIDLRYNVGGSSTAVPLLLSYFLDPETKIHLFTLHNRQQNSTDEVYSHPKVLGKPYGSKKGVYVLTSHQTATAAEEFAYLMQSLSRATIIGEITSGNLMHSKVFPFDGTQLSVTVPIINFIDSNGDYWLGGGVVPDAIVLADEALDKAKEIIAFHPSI

[1] = all-trans retinol fluorescence enhancement, ex 330 nm, em 480 nm
[2] = all-trans retinol fluorescence enhancement, ex 330 nm, em 480 nm, read-out: Kd, Enhancement
[3] = quenching by all-trans retinol, ex 280 nm, em 340 nm, read-out: Kd, Quenching

Binding sites (N), Enhancement (Xenopus IRBP Module 1; [1]): 0.83 ± 0.15
Kd (Xenopus IRBP Module 1; [2]): 0.44 ± 0.13 µM
Kd (Xenopus IRBP Module 1; [3]): 0.35 ± 0.08 µM
SMILES: CC1=C(/C=C/C(C)=C/C=C/C(C)=C/CO)C(C)(C)CCC1 [all-trans retinol]
Binding sites (N), Enhancement (Xenopus IRBP Module 2; [1]): 1.57 ± 0.04
Kd (Xenopus IRBP Module 2; [2]): 0.084 ± 0.022 µM
Binding sites (N), Quenching (Xenopus IRBP Module 2; quenching by all-trans retinol, ex 280 nm, em 340 nm): 1.31 ± 0.06
Kd (Xenopus IRBP Module 2; [3]): 0.14 ± 0.04 µM
